The target in this assay is T1, Enkephalinase (endopeptidase-24.11) partially purified from rat kidney (Rattus norvegicus, UniProt P07861).
T1 construct: Enkephalinase is partially purified from rat kidney; from tissue; host or cells: rat kidney, microvilli fraction
T1 sequence (P07861 1-750): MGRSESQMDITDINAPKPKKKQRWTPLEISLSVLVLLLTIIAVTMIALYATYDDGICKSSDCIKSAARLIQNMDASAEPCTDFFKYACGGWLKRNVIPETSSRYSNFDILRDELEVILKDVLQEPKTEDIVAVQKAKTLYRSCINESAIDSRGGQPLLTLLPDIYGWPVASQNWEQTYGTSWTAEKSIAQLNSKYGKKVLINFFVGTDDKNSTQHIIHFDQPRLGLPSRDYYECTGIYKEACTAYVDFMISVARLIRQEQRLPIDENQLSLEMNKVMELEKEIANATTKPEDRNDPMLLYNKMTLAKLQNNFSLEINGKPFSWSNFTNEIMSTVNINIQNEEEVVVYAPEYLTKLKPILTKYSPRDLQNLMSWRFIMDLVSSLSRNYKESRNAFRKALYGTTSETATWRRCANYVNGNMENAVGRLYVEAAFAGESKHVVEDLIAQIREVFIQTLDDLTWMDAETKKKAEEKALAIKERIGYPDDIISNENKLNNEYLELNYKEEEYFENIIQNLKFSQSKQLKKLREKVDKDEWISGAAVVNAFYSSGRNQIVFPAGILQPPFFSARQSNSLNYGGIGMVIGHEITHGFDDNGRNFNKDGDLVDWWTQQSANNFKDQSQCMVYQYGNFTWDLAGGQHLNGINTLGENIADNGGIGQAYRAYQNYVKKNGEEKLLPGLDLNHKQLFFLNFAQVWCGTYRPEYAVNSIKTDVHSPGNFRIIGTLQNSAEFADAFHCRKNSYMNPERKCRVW
Put plainly: Enkephalinase fluorometric assay with substrate dansyl-D-AlaGly(p-nitro)PheGly. The class given is biochemical. Conditions: substrate of enkephalinase; 50 mM HEPES buffer pH 7.4, 25° C. The source says: Enkephalinase is partially purified from rat kidney. The enzyme is extracted from the microvilli fraction by using Triton X-100 according to the method of Malfroy and Schwartz [J. Biol. Chem. 259, 14365-14370 (1984)] or by using a proteolytic treatment according to the method of Almenoff and Orlowski [Biochem. 22, 590-599 (1983)]. The enzyme is further purified by anion exchange chromatography (Mono Q™ column, Pharmacia) using a Pharmacia FPLC system. The enzyme activity may be measured by the fluorometric methods of Florentin et al. [Anal. Biochem. 141, 62-69 (1984)] or of Almenoff and Orlowski [J. Neurochemistry 42, 151-157 (1984)]. The enzyme is assayed in 50 mM HEPES buffer (pH 7.4) in a 3.0 mL reaction volume containing 12 μM of the substrate dansyl-D-AlaGly(p-nitro)PheGly (Km =40 μM) at 25° C. The substrate (and inhibitor) is added from a concentrated stock solution in DMSO (up to 0.1 mL DMSO final volume). The enzyme in a small volume (approximately 0.1 μg of FPLC purified protein) is added to initiate the reaction and the rate of fluorescence increase is recorded continuously using a fluorometer (excitation at 339 nm, emission at 562 nm).

Where a SMILES comes first, the peptide text is derived from it. [ ]: non-standard residue; d: D form. The star is where a group is joined. Phe(4-NO2) = N[C@@H](Cc1ccc([N+](=O)[O-])cc1)C(=O)O; Dansyl = CN(C)c1cccc2c(S(=O)(=O)*)cccc12

With `C[C@@H](NS(=O)(=O)c1cccc2c(N(C)C)cccc12)C(=O)NCC(=O)N[C@@H](Cc1ccc([N+](=O)[O-])cc1)C(=O)NCC(=O)O` [dansyl-D-AlaGly(p-nitro)PheGly] (Dansyl-[dA]G[Phe(4-NO2)]G-OH), the Michaelis constant (Km) (commonly the substrate concentration at which the rate is half of its maximum) was 40 µM.

(Values after patent publication US5635502A, “Mercaptoacetylamide bicyclic lactam derivatives useful as inhibitors of enkephalinase and ACE” (Merrell Pharmaceuticals Inc., priority 1995, dated 1997).)
